Laboratory results: US5696277A, “Antiviral prodrugs” (Hostetler; Karl Y., priority 1994, dated 1997)
Like-named read-outs stand apart in the source and are kept apart here.

Tests used:
in vitro = format: cell-based, human; details: human, mrc-5 cells
Procedure: (§1) The cytotoxicity of B-PFA and B-PAA in subconfluent MRC-5 cells was assessed by trypan blue exclusion.

MRC-5 cells = experiment: in vitro; format: cell-based, human
Procedure: as §1

human cytomegalovirus = experiment: CMV antiviral susceptibility assay: HCMV DNA by nucleic acid hybridization in infected MRC-5 cells (Tables I and II); format: cell-based; details: for fold increase in activity / times the activity of PAA: HCMV; for IC50: HCMV-infected MRC-5 cells, HCMV DNA after five days, mean ± S.D. (n)
Procedure: Phosphonoacid derivatives having structures according to formula I were tested for antiviral activity in human embryonic lung fibroblasts (MRC-5) or in human epithelioid cervical carcinoma cells (HeLa) expressing the CD4 receptor (HT4-6C). HCMV (strain AD-169) and HSV-1 (wild type) were used to infect MRC-5 cells and HCMV or HSV-specific DNA was measured by DNA-probe methods (HybriwixTM, Diagnostic Hybrids, Inc., Athens, Ohio) according to the manufacturer's instructions. HIV replication was accessed in HIV-1 infected HT4-6C cells using a plaque reduction assay ([…]. et al. (1990) Antimicrobial Agents Chemother. 34:436). Subconfluent MRC-5 cells in 24-well culture dishes were pretreated for 24 hours with various concentrations of drug in MEM medium containing 2% FBS and antibiotics. The media was removed and virus added at a dilution that will result in a 3-4+ cytopathic effect (CPE) in the no-drug wells in five days. This was absorbed for 1 hour at 37° C., aspirated and replaced with the drug dilutions. After five days of incubation HCMV DNA was quantified in triplicate by nucleic acid hybridization using a CMV Antiviral Susceptibility Test Kit from Diagnostic Hybrids, Inc. (Athens, Ohio). The media was removed and cells lysed according to the manufacturer's instructions. After absorption of the lysate, the HybriwixTM filters were hybridized overnight at 60° C. The HybriwixTM were washed for 30 minutes at 73° C. and counted in a gamma counter. The results are expressed as a percentage of the untreated HCMV-infected control cells.

[1] = tested on: human immunodeficiency virus-1; experiment: HIV-1 plaque reduction assay in HT4-6C cells (Table IV); format: cell-based, HIV-1 in CD4-expressing human HeLa cells (HT4-6C); details: for fold increase in activity: HIV-1, versus PFA; for IC50: Human immunodeficiency virus 1, 72 h, HIV-1 plaque reduction in HT4-6C cells, 3 days, mean ± S.D. (n)
Procedure: (§2) Phosphonoacid derivatives having structures according to formula I were tested for antiviral activity in human embryonic lung fibroblasts (MRC-5) or in human epithelioid cervical carcinoma cells (HeLa) expressing the CD4 receptor (HT4-6C). HCMV (strain AD-169) and HSV-1 (wild type) were used to infect MRC-5 cells and HCMV or HSV-specific DNA was measured by DNA-probe methods (Hybriwix™, Diagnostic Hybrids, Inc., Athens, Ohio) according to the manufacturer's instructions. HIV replication was accessed in HIV-1 infected HT4-6C cells using a plaque reduction assay (Larder, B. et al. (1990) Antimicrobial Agents Chemother. 34:436).
HT4-6C cells and plaque reduction assay, CD4-expressing HeLa cells, HT4-6C cells (Chesebro, B. and K. Wehrly (1988) J. Virology 62:3779-3788), were obtained from Bruce Chesebro, Hamilton, Mont. The effect of antiviral compounds on HIV replication was measured by a plaque reduction assay. Briefly, monolayers of HT4-6C cells were infected with 100 to 300 PFU of virus per well in 24-well microdilution plates. Various concentrations of drug were added to the culture medium, Dulbecco's Modified Eagle Medium containing 5% fetal bovine serum and antibiotics, as noted above. After 3 days at 37° C., the monolayers were fixed with 10% formaldehyde solution in phosphate-buffered saline and stained with 0.25% crystal violet to visualize virus plaques (Larder, B. et al. (1989) Science 243:1731-1734). Antiviral activity was assessed as the percentage of control plaques measured in drug-treated samples.

[2] = tested on: human herpes simplex virus 1; experiment: HSV antiviral susceptibility assay: HSV DNA by nucleic acid hybridization in infected MRC-5 cells (Table III); format: cell-based; details: for times more active than PFA / fold increase in activity: HSV-1; for fold increase in activity: versus PFA
Procedure: as §2
Subconfluent MRC-5 cells in 24-well culture dishes were inoculated by removing the media and adding HSV-1 virus at a dilution that will result in a 3-4+ CPE in the no-drug well in 20-24 hours. This was absorbed for 1 hour at 37° C., aspirated and replaced with various concentrations of drugs in MEM medium containing 2% FBS and antibiotics. After approximately 24 hours of incubation, HSV DNA was quantified in triplicate by nucleic acid hybridization using a HSV Antiviral Susceptibility Test Kit from Diagnostic Hybrids, Inc. (Athens, Ohio). The media was removed and cells lysed according to the manufacturer's instructions. After absorption of the lysate, the Hybriwix™ filters were hybridized overnight at […] The Hybriwix™ were washed for 30 minutes at 73° C. and counted in a gamma counter. The results are expressed as a percentage of the untreated HSV-infected control cells.

[3] = tested on: DNA polymerase of many viruses, including human cytomegalovirus (HCMV), herpes simplex virus (HSV); details: HSV and many other viruses; cited from earlier work
[4] = tested on: reverse transcriptase of human immunodeficiency virus (HIV); details: cited from earlier work
[5] = in vivo; cited from earlier work
[6] = phosphonoacetate series, versus PAA
[7] = Human betaherpesvirus 5, MRC5, 120 h
[8] = phosphonoformate series, versus PFA
[9] = Human alphaherpesvirus 1, MRC5, HSV-1-infected MRC-5 cells, approximately 24 hours, mean ± S.D. (n), read-out: IC50

Row | SMILES | fold increase in activity (human cytomegalovirus; [6]) [fold] | IC50 (human cytomegalovirus; [7]) [µM] | fold increase in activity (human cytomegalovirus; [8]) [fold] | other results
1 | CCCCCCCCCCCCCCCCCCOC[C@@H](O)COP(=O)(O)CC(=O)O [B--PAA, 1O-octadecyl-snglycero-3-phosphonoacetic acid] | 100 | 0.22 ± 0.08 |  | CC50 (in vitro): 32 to 100 µM; selectivity index (MRC-5 cells): ≥ 300
2 | CCCCCCCCCCCCCCCCCCOC[C@@H](O)COP(=O)(O)CC(=O)OCC [B--PAA--OEt, 1O-octadecyl-snglycero-3-phosphonoacetate ethyl ester] | 6.1 | 3.6 ± 1.5 |  | 
3 | CCCCCCCCCCCCCCCCCCOC[C@@H](O)COP(=O)(O)C(=O)O [B--PFA, 1O-octadecyl-snglycero-3-phosphonoformic acid] |  | 0.43 ± 0.27 | 107 | fold increase in activity [1]: 37 fold; IC50 [1]: 3.6 ± 1.51 µM; CC50 (in vitro): > 1000 µM; selectivity index (MRC-5 cells): ≥ 300; times more active than PFA [2]: 43 times; fold increase in activity [2]: 43 fold; IC50 [2, 9]: 1.1 ± 1.1 µM
4 | CCCCCCCCCCCCCCCCCCOC[C@@H](O)COP(=O)(O)C(=O)OCC [B--PFA--OEt, 1O-octadecyl-snglycero-3-phosphonoformate ethyl ester] |  | 1.2 ± 0.49 | 38 | 
5 | CCCCCCCCCCCCCCCCCCOC[C@H](COC(=O)CP(=O)(O)O)OCc1ccccc1 [BB--(C)--PAA, 1O-octadecyl-2-O-benzyl-snglycero-3-carboxymethylenephosphonate] | 16 | 1.4 ± 0.9 |  | 
6 | CCCCCCCCCCCCCCCCCCOC[C@H](COP(=O)(O)CC(=O)O)OCc1ccccc1 [BB--PAA, 1O-octadecyl-2-O-benzyl-snglycero-3-phosphonoacetic acid] | 24 | 0.92 ± 0.8 |  | 
7 | CCCCCCCCCCCCCCCCCCOC[C@H](COP(=O)(O)CC(=O)OCC)OCc1ccccc1 [BB--PAA--OEt, 1O-octadecyl-2-O-benzyl-snglycero-3-phosphonoacetate ethyl ester] | 3.1 | 7.2 ± 1 |  | 
8 | CCCCCCCCCCCCCCCCCCOC[C@H](COP(=O)(O)C(=O)O)OCc1ccccc1 [BB--PFA, 1O-octadecyl-2-O-benzyl-snglycero-3-phosphonoformic acid] |  | 0.64 ± 0.65 | 72 | fold increase in activity [1]: 9.0 fold; fold increase in activity ([1]; listed as BB-PFA): 9 fold; IC50 [1]: 14.8 ± 7.3 µM; times more active than PFA [2]: 34 times; fold increase in activity [2]: 34 fold; IC50 [2, 9]: 1.4 ± 0.4 µM
9 | CCCCCCCCCCCCCCCCCCOC[C@H](COP(=O)(O)C(=O)OCC)OCc1ccccc1 [BB--PFA--OEt, 1O-octadecyl-2-O-benzyl-snglycero-3-phosphonoformate ethyl ester] |  | 2.9 ± 0.97 | 16 | 
10 | CCCCCCCCCCCCCC(=O)OC[C@H](COP(=O)(O)CC(=O)O)OC(=O)CCCCCCCCCCCCC [DMG--PAA, 1,2dimyristoyl-snglycero-3-phosphonoacetate] | 1.2 | 19 ± 6.5 |  | times the activity of PAA (human cytomegalovirus): 1.2 times
11 | CCCCCCCCCCCCCC(=O)OC[C@H](COP(=O)(O)CC(=O)OCC)OC(=O)CCCCCCCCCCCCC [DMG--PAA--OEt, 1,2dimyristoyl-snglycero-3-phosphonoacetate ethyl ester] | 0.2 | 108 ± 42 |  | 
12 | CCCCCCCCCCCCCC(=O)OC[C@H](COP(=O)(O)C(=O)O)OC(=O)CCCCCCCCCCCCC [DMG--PFA, 1,2dimyristoyl-snglycero-3-phosphonoformate] |  | 125 ± 43 | 0.33 | 
13 | CCCCCCCCCCCCCC(=O)OC[C@H](COP(=O)(O)C(=O)OCC)OC(=O)CCCCCCCCCCCCC [DMG--PFA--OEt, 1,2dimyristoyl-snglycero-3-phosphonoformate ethyl ester] |  | 30 ± 18 | 1.53 | 
14 | CCCCCCCCCCCCCC(=O)OC[C@H](COP(=O)(O)OP(=O)(O)CC(=O)O)OC(=O)CCCCCCCCCCCCC [DMP--PAA, 1,2dimyristoyl-snglycero-3-phospho-phosphonoacetate] | 0.2 |  |  | times the activity of PAA (human cytomegalovirus): 0.24 times; IC50 (human cytomegalovirus): 93 ± 92 µM
15 | CCCCCCCCCCCCCC(=O)OC[C@H](COP(=O)(O)OP(=O)(O)CC(=O)OCC)OC(=O)CCCCCCCCCCCCC [DMP--PAA--OEt, 1,2dimyristoyl-snglycero-3-phospho-phosphonoacetate ethyl ester] | 0.2 |  |  | IC50 (human cytomegalovirus): 130 ± 28 µM
16 | CCCCCCCCCCCCCCCC(=O)OC[C@H](COP(=O)(O)OP(=O)(O)CC(=O)O)OC(=O)CCCCCCCCCCCCCCC [DPP--PAA, 1,2dipalmitoyl-snglycero-3-phospho-phosphonoacetate] | 0.3 |  |  | times the activity of PAA (human cytomegalovirus): 0.28 times; IC50 (human cytomegalovirus): 80 ± 42 µM
17 | CCCCCCCCCCCCCCCCCCOC[C@H](COP(=O)(O)CC(=O)O)OC [MB--PAA, 1O-octadecyl-2-O-methyl-snglycero-3-phosphonoacetic acid] | 36 | 0.61 ± 0.76 |  | 
18 | CCCCCCCCCCCCCCCCCCOC[C@H](COP(=O)(O)CC(=O)OCC)OC [MB--PAA--OEt, 1-O-octadecyl-2-O-methyl-sn-glycero-3-phosphonoacetic acid ethyl ester] | 3.3 | 6.7 ± 1.9 |  | 
19 | CCCCCCCCCCCCCCCCCCOC[C@H](COP(=O)(O)C(=O)O)OC [MB--PFA, 1O-octadecyl-2-O-methyl-snglycero-3-phosphonoformic acid] |  | 0.64 ± 0.14 | 72 | activity compared with B-PFA ([1]; HIV-1, HT4-6C cells, p = 0.0373 versus B-PFA): more active than B-PFA to a statistically significant degree; fold increase in activity [1]: 104 fold; IC50 [1]: 1.28 ± 0.73 µM; fold increase in activity (human cytomegalovirus; phosphonoformate series, versus PFA, listed as MB-PFA): 38 fold; times more active than PFA [2]: 72 times; fold increase in activity [2]: 72 fold; IC50 [2, 9]: 0.65 ± 0.21 µM
20 | O=C(O)CP(=O)(O)O [PAA, phosphonoacetic acid] |  | 22 ± 7 |  | selective inhibition of viral DNA polymerase [3]: selectively inhibit the DNA polymerase of many viruses; selective inhibition of HIV reverse transcriptase [4]: selectively inhibit; toxicity in humans [5]: too toxic for use in humans
21 | O=C(O)P(=O)(O)O [PFA, phosphonoformic acid, reference compound] |  | 46 ± 19 |  | selective inhibition of viral DNA polymerase [3]: selectively inhibit the DNA polymerase of many viruses; IC50 [1]: 133 ± 54 µM; selective inhibition of HIV reverse transcriptase [4]: selectively inhibit; IC50 ([2]; Human alphaherpesvirus 1, MRC5, 24 h): 47 ± 20 µM; toxicity in humans [5]: substantial toxicity to the kidney and other organs
